Patent publication US20100168421A1, “A NEW PEPTIDE DEFORMYLASE INHIBITOR COMPOUND AND MANUFACTURING PROCESS THEREOF” (priority 2007, published 2010)
Values after ≈ are worked out from the molar mass of the structure shown. Read-outs that look alike come from different tables or passages of the source.

Key:
Assay type in all cases: cell-based
[1] = test system: Vancomycin-resistant Enterococcus faecium; test: MIC microdilution, VR E. faecium; settings: read-out: MIC Vancomycin-resistant Enterococcus faecium
Experimental: (§1) Minimum inhibitory concentrations (MICs) were determined using the microdilution method in 96-well format plates. Each of the compounds of Examples was dissolved in dimethyl sulfoxide to a concentration of 2 mg/mL and stored at 4° C. until used. They were diluted in Mueller-Hinton Broth (MHB) and used for MIC determination. The range of concentrations tested was […] final concentration using a two-fold dilution system. Plates were incubated at 37° C. and MIC were recorded after 24 hours of incubation for bacteria.
(§2) Linezolid and vancomycin were used as standard antibiotics, respectively.

[2] = test system: Vancomycin-resistant Enterococcus faecalis; test: MIC microdilution, VR E. faecalis; settings: read-out: MIC Vancomycin-resistant Enterococcus faecalis
Experimental: as §1, §2

Streptococcus pyogenes = test: MIC microdilution, S. pyogenes; settings: read-out: MIC Streptococcus pyogenes
Experimental: as §1, §2

[3] = test system: Streptococcus Pneumoniae Pen S; test: MIC microdilution, S. Pneumoniae Pen S; settings: read-out: MIC Streptococcus Pneumoniae Pen S
Experimental: as §1, §2

[4] = test system: Streptococcus Pneumoniae Pen NS; test: MIC microdilution, S. Pneumoniae Pen NS; settings: read-out: MIC Streptococcus Pneumoniae Pen NS
Experimental: as §1, §2

[5] = microdilution, Mueller-Hinton Broth, 37° C., 24 hours

| SMILES | MIC [1, 5] [µg/mL] | MIC [2, 5] [µg/mL] | MIC (Streptococcus pyogenes; [5]) [µg/mL] | MIC [3, 5] [µg/mL] | MIC [4, 5] [µg/mL] | MIC ([1]; 24 h) [µg/mL] | MIC ([2]; 24 h) [µg/mL] | MIC (Streptococcus pyogenes; 24 h) [µg/mL] | MIC ([3]; 24 h) [µg/mL] | MIC ([4]; 24 h) [µg/mL] |
| --- | --- | --- | --- | --- | --- | --- | --- | --- | --- | --- |
| CC(C)(C)[C@H](NC(=O)[C@H](CC1CCCC1)CN(O)C=O)C(=O)N1CCC(NCc2ccc(C#N)cc2)CC1 [Example 3, (R)-N-{(S)-1-[4-(4-Cyano-benzylamino)-piperidine-1-carbonyl]-2,2-dimethyl-propyl}-2-cyclopentylmethyl-3-(formyl-hydroxy-amino)-propionamide] | 0.4 (≈ 0.761 µM) | 0.8 (≈ 1.52 µM) | 0.2 (≈ 0.38 µM) | 0.1 (≈ 0.19 µM) | 0.4 (≈ 0.761 µM) |  |  |  |  |  |
| CC(C)(C)[C@H](NC(=O)[C@H](CC1CCCC1)CN(O)C=O)C(=O)N1CCC(NCc2ccc(F)cc2)CC1 [Example 4, (R)-2-Cyclopentylmethyl-N-{(S)-1-[4-(4-fluoro-benzylamino)-piperidine-1-carbonyl]-2,2-dimethyl-propyl}-3-(formyl-hydroxy-amino)-propionamide] | 0.4 (≈ 0.771 µM) | 3.1 (≈ 5.98 µM) | 0.4 (≈ 0.771 µM) | 0.2 (≈ 0.386 µM) | 0.4 (≈ 0.771 µM) |  |  |  |  |  |
| COC(=O)c1ccc(CNC2CCN(C(=O)[C@@H](NC(=O)[C@H](CC3CCCC3)CN(O)C=O)C(C)(C)C)CC2)cc1 [Example 7, 4-[(1-{(S)-2-[(R)-2-Cyclopentylmethyl-3-(formyl-hydroxy-amino)-propionylamino]-3,3-dimethyl-butyryl}-piperidin-4-ylamino)-methyl]-benzoic acid methyl ester] | 3.1 (≈ 5.55 µM) | 6.3 (≈ 11.3 µM) | 0.8 (≈ 1.43 µM) | 0.4 (≈ 0.716 µM) | 1.6 (≈ 2.86 µM) |  |  |  |  |  |
| CC(C)(C)[C@H](NC(=O)[C@H](CC1CCCC1)CN(O)C=O)C(=O)N1CCC(NCc2ccccn2)CC1 [Example 9, (R)-2-Cyclopentylmethyl-N-((S)-2,2-dimethyl-1-{4-[(pyridine-2-ylmethyl)-amino]-piperidine-1-carbonyl}-propyl)-3-(formyl-hydroxy-amino)-propionamide] | 12.5 (≈ 24.9 µM) | 12.5 (≈ 24.9 µM) | 0.8 (≈ 1.59 µM) | 1.6 (≈ 3.19 µM) | 1.6 (≈ 3.19 µM) |  |  |  |  |  |
| COc1ccc(CNC2CCN(C(=O)[C@@H](NC(=O)[C@H](CC3CCCC3)CN(O)C=O)C(C)(C)C)CC2)c(OC)c1 [Example 12, (R)-2-Cyclopentylmethyl-N-{(S)-1-[4-(2,4-dimethoxy-benzylamino)-piperidine-1-carbonyl]-2,2-dimethyl-propyl}-3-(formyl-hydroxy-amino)-propionamide] | 3.1 (≈ 5.53 µM) | 6.3 (≈ 11.2 µM) | 0.2 (≈ 0.357 µM) | 0.2 (≈ 0.357 µM) | 0.8 (≈ 1.43 µM) |  |  |  |  |  |
| CC(C)(C)[C@H](NC(=O)[C@H](CC1CCCC1)CN(O)C=O)C(=O)N1CCC(NCc2cc(F)c(F)cc2F)CC1 [Example 14, (R)-2-Cyclopentylmethyl-N-{(S)-2,2-dimethyl-1-[4-(2,4,5-trifluoro-benzylamino)-piperidine-1-carbonyl]-propyl}-3-(formyl-hydroxy-amino)-propionamide] | 0.2 (≈ 0.361 µM) | 1.6 (≈ 2.88 µM) | 0.1 (≈ 0.18 µM) | 0.1 (≈ 0.18 µM) | 0.4 (≈ 0.721 µM) |  |  |  |  |  |
| CC(C)(C)[C@H](NC(=O)[C@H](CC1CCCC1)CN(O)C=O)C(=O)N1CCC(Nc2ccccc2)CC1 [Example 15, (R)-2-Cyclopentylmethyl-N-[(S)-2,2-dimethyl-1-(4-phenylamino-piperidine-1-carbonyl)-propyl]-3-(formyl-hydroxy-amino)-propionamide] |  |  |  |  |  | 0.4 (≈ 0.822 µM) | 1.6 (≈ 3.29 µM) | 0.1 (≈ 0.205 µM) | 0.1 (≈ 0.205 µM) | 0.4 (≈ 0.822 µM) |
| CC(C)(C)[C@H](NC(=O)[C@H](CC1CCCC1)CN(O)C=O)C(=O)N1CCC(Nc2ccc(C#N)cc2)CC1 [Example 16, (R)-N-{(S)-1-[4-(4-Cyano-phenylamino)-piperidine-1-carbonyl]-2,2-dimethyl-propyl}-2-cyclopentylmethyl-3-(formyl-hydroxy-amino)-propionamide] | 0.4 (≈ 0.782 µM) | 3.1 (≈ 6.06 µM) | 0.1 (≈ 0.195 µM) | 0.1 (≈ 0.195 µM) | 1.6 (≈ 3.13 µM) |  |  |  |  |  |
| Cc1ccc(NC2CCN(C(=O)[C@@H](NC(=O)[C@H](CC3CCCC3)CN(O)C=O)C(C)(C)C)CC2)cc1 [Example 18, (R)-2-Cyclopentylmethyl-N-[(S)-2,2-dimethyl-1-(4-p-tolylamino-piperidine-1-carbonyl)-propyl]-3-(formyl-hydroxy-amino)-propionamide] | 0.4 (≈ 0.799 µM) | 3.1 (≈ 6.19 µM) | 0.1 (≈ 0.2 µM) | 0.2 (≈ 0.399 µM) | 0.4 (≈ 0.799 µM) |  |  |  |  |  |
| COc1ccc(NC2CCN(C(=O)[C@@H](NC(=O)[C@H](CC3CCCC3)CN(O)C=O)C(C)(C)C)CC2)cc1 [Example 19, (R)-2-Cyclopentylmethyl-3-(formyl-hydroxy-amino)-N-{(S)-1-[4-(4-methoxy-phenylamino)-piperidine-1-carbonyl]-2,2-dimethyl-propyl}-propionamide] | 1.6 (≈ 3.1 µM) | 3.1 (≈ 6 µM) | 0.2 (≈ 0.387 µM) | 0.4 (≈ 0.774 µM) | 0.2 (≈ 0.387 µM) |  |  |  |  |  |
| COC(=O)c1ccc(NC2CCN(C(=O)[C@@H](NC(=O)[C@H](CC3CCCC3)CN(O)C=O)C(C)(C)C)CC2)cc1 [Example 21, 4-(1-[(S)-2-[(R)-2-Cyclopentylmethyl-3-(formyl-hydroxy-amino)-propionylamino]-3,3-dimethyl-butyryl]-piperidin-4-ylamino)-benzoic acid methyl ester] | 1.6 (≈ 2.94 µM) | 6.3 (≈ 11.6 µM) | 0.4 (≈ 0.734 µM) | 0.2 (≈ 0.367 µM) | 0.8 (≈ 1.47 µM) |  |  |  |  |  |
| CC(C)(C)[C@H](NC(=O)[C@H](CC1CCCC1)CN(O)C=O)C(=O)N1CCC(Nc2ccc(F)cc2F)CC1 [Example 23, (R)-2-Cyclopentylmethyl-N-{(S)-1-[4-(2,4-difluoro-phenylamino)-piperidine-1-carbonyl]-2,2-dimethyl-propyl}-3-(formyl-hydroxy-amino)-propionamide] |  |  |  |  |  | 0.2 (≈ 0.383 µM) | 3.1 (≈ 5.93 µM) | 0.1 (≈ 0.191 µM) | 0.05 (≈ 0.0957 µM) | 0.2 (≈ 0.383 µM) |
| COc1ccc(NC2CCN(C(=O)[C@@H](NC(=O)[C@H](CC3CCCC3)CN(O)C=O)C(C)(C)C)CC2)c(OC)c1 [Example 24, (R)-2-Cyclopentylmethyl-N-{(S)-1-[4-(2,4-dimethoxy-phenylamino)-piperidine-1-carbonyl]-2,2-dimethyl-propyl}-3-(formyl-hydroxy-amino)-propionamide] | 0.8 (≈ 1.46 µM) | 6.3 (≈ 11.5 µM) | 0.1 (≈ 0.183 µM) | 0.2 (≈ 0.366 µM) | 0.4 (≈ 0.732 µM) |  |  |  |  |  |
| CC(C)(C)[C@H](NC(=O)[C@H](CC1CCCC1)CN(O)C=O)C(=O)N1CCC(Nc2ccc(N3CCOCC3)c(F)c2)CC1 [Example 25, (R)-2-Cyclopentylmethyl-N-{(S)-1-[4-(3-fluoro-4-morpholin-4-yl-phenylamino)-piperidine-1-carbonyl]-2,2-dimethyl-propyl}-3-(formyl-hydroxy-amino)-propionamide] | 3.1 (≈ 5.26 µM) | 12.5 (≈ 21.2 µM) | 0.8 (≈ 1.36 µM) | 0.4 (≈ 0.678 µM) | 1.6 (≈ 2.71 µM) |  |  |  |  |  |
| CC(=O)NC[C@H]1CN(c2ccc(N3CCOCC3)c(F)c2)C(=O)O1 [Linezolid, reference compound] | 1.6 (≈ 4.74 µM) | 0.8 (≈ 2.37 µM) | 0.8 (≈ 2.37 µM) | 0.8 (≈ 2.37 µM) | 0.8 (≈ 2.37 µM) |  |  |  |  |  |
| CN[C@H](CC(C)C)C(=O)N[C@H]1C(=O)N[C@@H](CC(N)=O)C(=O)N[C@H]2C(=O)N[C@H]3C(=O)N[C@H](C(=O)N[C@H](C(=O)O)c4cc(O)cc(O)c4-c4cc3ccc4O)[C@H](O)c3ccc(c(Cl)c3)Oc3cc2cc(c3O[C@@H]2O[C@H](CO)[C@@H](O)[C@H](O)[C@H]2O[C@H]2C[C@](C)(N)[C@H](O)[C@H](C)O2)Oc2ccc(cc2Cl)[C@H]1O [Vancomycin, reference compound] |  |  |  |  |  | > 50 | > 50 | 0.4 (≈ 0.276 µM) | 0.2 (≈ 0.138 µM) | 0.4 (≈ 0.276 µM) |
